According to US20210386729A1, “METHODS FOR TREATING LIVER DISORDERS USING FXR AGONISTS” (NOVARTIS AG, priority 2016, published 2021):
“Also recorded” adds a separate entry of the source. Read-outs that look alike come from different tables or passages of the source.

How the values were obtained:
[1] = Multiple oral dose plasma pharmacokinetics in healthy subjects; format: in vivo, human; conditions: for Cmax / AUC / Tmax: human, plasma
[2] = Pharmacokinetics in the chronic 2 week rat ANIT-induced cholestasis model; format: in vivo; conditions: male, Wistar, po, day 13, serum; for AUC(0-t): read-out: AUC 0-24 hr
Protocol: Male Wistar rats were treated with ANIT (0.1% ANIT in chow diet) for 2 weeks. […] The serum samples were collected on day 14 for analysis of biomarkers of hepatobiliary injury (including ALT, AST, bilirubin and bile acids). […] The mean biomarker data were compared to the PK data (average concentration at each dose) for the modeling. The IC80 was determined using the Inhibitory effect Imax model (effect C=0 at Imax, C=infinity at E0) built in Phoenix WinNonlin 6.3 software. […] Therefore, we chose to use a mean of the IC80 for the four biomarkers (total bilirubin, total bile acids, ALT and AST) as the IC80 for efficacy in this model.
ND=not determined. Data are presented as mean (n=3/group).

FGF15 = assay: Serum FGF15 (MSD assay) in chronic rat ANIT-induced cholestasis model; format: in vivo; conditions: chronic treatment rat ANIT model
Protocol: Serum FGF15 levels were quantified using an FGF15 Meso Scale Discovery (MSD) assay. Mouse FGF15 antibody from R&D Systems (AF6755) was used both as capture and detection antibody in the assay. MSD SULFO-TAG NHS-Ester was used to label the FGF15 antibody. MSD standard 96-well plates were coated with the FGF15 capture antibody and the plates were blocked with MSD Blocker A (R93AA-2). After washing the plate with PBS+0.05% Tween 20, MSD diluent 4 was dispensed into each well and incubated for 30 min. 25 μl of calibrator dilutions or samples (serum or EDTA plasma) were dispensed into each well and incubated with shaking at RT. After washing, detection antibody was added and incubated with shaking for 1 h at RT. After washing and the addition of MSD Read buffer (R92TC-2), the plate was read on an MSD SECTOR Imager 6000. Plots of the standard curve and unknown samples were calculated using MSD data analysis software.
Activation of FXR in the ileum induces the expression of fibroblast growth factor 15 (FGF15 in rodent; FGF19 in human), a hormone that is secreted in the portal blood and signals to the liver to repress Cyp7a1 expression synergistically with SHP. The direct FXR-dependent induction of FGF15/19 along with FGF15/19's anti-cholestatic properties makes it a convenient serum biomarker for detecting target engagement of FXR agonists.

[3] = Protein binding, human vs rat; format: in vitro ADME
[4] = Food effect (high-fat meal vs fasted) on pharmacokinetics; format: in vivo, human; conditions: taken with a high-fat meal
Protocol: To avoid variability in drug exposure, it is recommended that throughout the treatment period, patients will be directed to take study drug at home with ˜240 mL (8 ounces) of water in the morning in a fasting state, at least 30 min prior to the first beverage apart from water and 60 min prior to first meal of the day, preferably at the same time of the day.

[5] = Human efficacy dose calculation from rat efficacious exposure
Protocol: The human efficacy dose was calculated based on the efficacious exposure in the rat ANIT-induced disease model. Since the in vitro potency and protein binding between human and rat were similar, the EC80 exposure in human was assumed to be the same as that in rat (3.05 ng*h/mL).

[6] = healthy subjects, 10 μg qd, Day 1, plasma, mean
[7] = healthy subjects, 10 μg qd, Day 13, plasma, mean
[8] = healthy subjects, 30 μg qd, Day 1, plasma, mean
[9] = healthy subjects, 30 μg qd, Day 13, plasma, mean
[10] = healthy subjects, 60 μg qd, Day 1, plasma, mean
[11] = healthy subjects, 60 μg qd, Day 13, plasma, mean
[12] = healthy subjects, 100 μg qd, Day 1, plasma, mean
[13] = healthy subjects, 100 μg qd, Day 13, plasma, mean

## O=C(O)c1cc(F)c2nc(N3C4CC[C@H]3CC(OCc3c(-c5ccccc5OC(F)(F)F)noc3C3CC3)C4)sc2c1 (stereo partly drawn) [Compound A]
[1]; [6]
  Racc: 1.00
  Tlast: 23.9 h
[1]; [7]
  Racc: 1.87
  Tlast: 23.6 h
[1]; [8]
  Racc: 1.00
  Tlast: 23.9 h
[1]; [9]
  Racc: 1.21
  Tlast: 23.6 h
[1]; [10]
  Racc: 1.00
  Tlast: 23.9 h
[1]; [11]
  Racc: 1.66
  Tlast: 22.3 h
[1]; [12]
  Racc: 1.00
  Tlast: 23.9 h
[1]; [13]
  Racc: 1.41
  Tlast: 23.6 h
[1]; oral, 10 μg, average Cmax at day 13 for a dose level of 10 μg, exposures for the doses 10-100 μg normalized to 10 μg
  Cmax: 0.32 ng/mL
[1]; oral, 10 μg, exposures for the doses 10-100 μg normalized to 10 μg, read-out: average AUCtau at day 13 for a dose level of 10 μg
  AUC: 4.84 ng·h/mL
[1]; oral, 10 ug, healthy subjects, 10 μg qd, Day 1, plasma, mean, read-out: AUCtau
  AUC: 2.88 ng·h/mL
[1]; oral, 10 ug, healthy subjects, 10 μg qd, Day 1, plasma, mean, read-out: Cmax
  Cmax: 0.212 ng/mL
[1]; oral, 10 ug, healthy subjects, 10 μg qd, Day 1, plasma, median, read-out: Tmax
  Tmax: 4 h
[1]; oral, 10 ug, healthy subjects, 10 μg qd, Day 13, plasma, mean, read-out: AUCtau
  AUC: 4.88 ng·h/mL
[1]; oral, 10 ug, healthy subjects, 10 μg qd, Day 13, plasma, mean, read-out: Cmax
  Cmax: 0.319 ng/mL
[1]; oral, 10 ug, healthy subjects, 10 μg qd, Day 13, plasma, median, read-out: Tmax
  Tmax: 4 h
[1]; oral, 30 ug, healthy subjects, 30 μg qd, Day 1, plasma, mean, read-out: AUCtau
  AUC: 11.7 ng·h/mL
[1]; oral, 30 ug, healthy subjects, 30 μg qd, Day 1, plasma, mean, read-out: Cmax
  Cmax: 0.894 ng/mL
[1]; oral, 30 ug, healthy subjects, 30 μg qd, Day 1, plasma, median, read-out: Tmax
  Tmax: 6 h
[1]; oral, 30 ug, healthy subjects, 30 μg qd, Day 13, plasma, mean, read-out: AUCtau
  AUC: 14 ng·h/mL
[1]; oral, 30 ug, healthy subjects, 30 μg qd, Day 13, plasma, mean, read-out: Cmax
  Cmax: 0.943 ng/mL
[1]; oral, 30 ug, healthy subjects, 30 μg qd, Day 13, plasma, median, read-out: Tmax
  Tmax: 4 h
[1]; oral, 60 ug, healthy subjects, 60 μg qd, Day 1, plasma, mean, read-out: AUCtau
  AUC: 16.2 ng·h/mL
[1]; oral, 60 ug, healthy subjects, 60 μg qd, Day 1, plasma, mean, read-out: Cmax
  Cmax: 1.22 ng/mL
[1]; oral, 60 ug, healthy subjects, 60 μg qd, Day 1, plasma, median, read-out: Tmax
  Tmax: 4 h
[1]; oral, 60 ug, healthy subjects, 60 μg qd, Day 13, plasma, mean, read-out: AUCtau
  AUC: 25.3 ng·h/mL
[1]; oral, 60 ug, healthy subjects, 60 μg qd, Day 13, plasma, mean, read-out: Cmax
  Cmax: 1.61 ng/mL
[1]; oral, 60 ug, healthy subjects, 60 μg qd, Day 13, plasma, median, read-out: Tmax
  Tmax: 4 h
[1]; oral, 100 ug, healthy subjects, 100 μg qd, Day 1, plasma, mean, read-out: AUCtau
  AUC: 30.3 ng·h/mL
[1]; oral, 100 ug, healthy subjects, 100 μg qd, Day 1, plasma, mean, read-out: Cmax
  Cmax: 2.4 ng/mL
[1]; oral, 100 ug, healthy subjects, 100 μg qd, Day 1, plasma, median, read-out: Tmax
  Tmax: 4 h
[1]; oral, 100 ug, healthy subjects, 100 μg qd, Day 13, plasma, mean, read-out: AUCtau
  AUC: 50.2 ng·h/mL
[1]; oral, 100 ug, healthy subjects, 100 μg qd, Day 13, plasma, mean, read-out: Cmax
  Cmax: 3.47 ng/mL
[1]; oral, 100 ug, healthy subjects, 100 μg qd, Day 13, plasma, median, read-out: Tmax
  Tmax: 4 h
[1]; po, once daily oral dosing 10-100 μg, fasted, post-dose, read-out: Tmax range
  Tmax: 3 to 10 h
[1]; po, once daily oral dosing for 13 days, fasted, Day 13, across all doses, read-out: median Tmax
  Tmax: 4 h
[1]; once daily doses for 13 days, 10-100 μg
  dose proportionality of Cmax and AUCtau: approximately dose-proportional increase
[1]; once daily oral dosing, trough levels
  time to steady-state: ≤ 4 days
[2]; 0.01 mg/kg
  Cmax: 0.39 ng/mL
  AUC(0-t): 3.49 ng·h/mL
[2]; 0.05 mg/kg
  Cmax: 2.28 ng/mL
[2]; 0.25 mg/kg
  Cmax: 15.6 ng/mL
  AUC(0-t): 158 ng·h/mL
[2]; 1.0 mg/kg
  Cmax: 52 ng/mL
  AUC(0-t): 582 ng·h/mL
FGF15
  serum FGF15 levels: stimulated serum FGF15 expression; also recorded: Significant dose-dependent induction
[3]
  protein binding between human and rat: similar
[4]; human, plasma, oral, read-out: median Tmax
  Tmax: 9 h
[4]
  increase of mean AUCinf compared to the fasted state: approximately 60%
  increase of mean Cmax compared to the fasted state: approximately 60%
[5]; at dose of ~6 μg
  Cmax at estimated human efficacious dose: ~0.2 ng/mL
[5]; rat value, human assumed to be the same
  EC80 exposure: 3.05 ng·h/mL
